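Values below derive from 48-hour exposures of cells grown in 96-well plates, with endpoints linearly interpolated between the two concentrations bracketing the appropriate inhibition level. Definition used: TGI = concentration required for complete inhibition of growth.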
Assays:
Experiment in all cases: NCI-60 cell line screen, 48 h
SN12C renal = test system: SN12C renal
U251 CNS = test system: U251 CNS
TK-10 renal = test system: TK-10 renal
LOX IMVI melanoma = test system: LOX IMVI melanoma
CAKI-1 renal = test system: CAKI-1 renal
HOP-62 NSCLC = test system: HOP-62 NSCLC
UO-31 renal = test system: UO-31 renal
786-0 renal = test system: 786-0 renal
SNB-75 CNS = test system: SNB-75 CNS

Row | SMILES | TGI (SN12C renal) [µM] | TGI (U251 CNS) [µM] | TGI (TK-10 renal) [µM] | TGI (LOX IMVI melanoma) [µM] | TGI (CAKI-1 renal) [µM] | TGI (HOP-62 NSCLC) [µM] | TGI (UO-31 renal) [µM] | TGI (786-0 renal) [µM] | TGI (SNB-75 CNS) [µM]
1 | COc1ccc(C(C#N)Cc2cc(OC)c(OC)c(OC)c2)cc1 (stereo not given) | > 100 | > 100 | > 100 | > 100 | > 100 | > 100 | > 100 | > 100 | 
2 | N#CC(c1nc2ccccc2nc1Cl)S(=O)(=O)c1ccccc1 (stereo not given) | > 100 | > 100 | > 100 | > 100 | > 100 | > 100 | > 100 | > 100 | > 100
3 | Cc1[nH]c2ccccc2c1C1Cc2ccccc2N1C(=O)/C=C/C(=O)O (stereo not given) | > 100 | > 100 | > 100 | > 100 | > 100 | > 100 | > 100 | > 100 | > 100
4 | CN1c2ccccc2N(C)C23N(C)c4ccccc4N(C)C12N(C)c1ccccc1N3C (stereo not given) | > 100 | > 100 | > 100 | > 100 | > 100 | > 100 | > 100 | > 100 | > 100
5 | CCOC(=O)NC(=O)c1cn(CCN2CCN(c3ncnc4nc[nH]c34)CC2)c(=O)[nH]c1=O | > 100 | > 100 | > 100 | > 100 |  | > 100 | > 100 | > 100 | > 100
6 | CCc1cccc(C)c1NC(=O)C(=O)Cc1nc2ccccc2s1 | > 100 | > 100 | > 100 |  | > 100 |  | > 100 | > 100 | > 100
7 | COC(=O)c1cc(Cl)ccc1NC(=O)c1ccc([N+](=O)[O-])cc1 |  | 22.2 | 40.6 |  | 53.1 | 38.8 | 38.7 | 38.2 | 20.7
8 | Cc1ccccc1NC(=O)C(=O)CC(=O)c1c(C)n([O-])c2ccccc2[n+]1=O | > 100 | > 100 |  |  | > 100 | > 100 | > 100 | > 100 | > 100
9 | O=C1CC(S(=O)(=O)O)C=C1Nc1cccc(Cl)c1 (stereo not given) | > 100 | > 100 | > 100 | > 100 | > 100 | > 100 | > 100 | > 100 | > 100
10 | COc1ccc(/C=N/N=C(\N)NO)c(OC)c1 | > 100 | > 100 |  | > 100 | > 100 | 84.3 | > 100 | > 100 | 
11 | COc1ccc(OC)c2c1C(=O)C1CC1(Br)C2=O (stereo not given) | > 100 | > 100 | > 100 | > 100 | > 100 | > 100 | > 100 | > 100 | 
12 | O=CN/C=C/c1ccc(O)c(O)c1 | > 100 | > 100 | > 100 | > 100 | > 100 | > 100 | > 100 | > 100 | > 100
13 | C1=C2/CC[C@H](Sc3ccccc3)[C@H]2C2(CCCCC/1)OCCO2 | > 100 | 63.1 | > 100 | 39.5 | 63 | > 100 | > 100 | > 100 | > 100
14 | Cc1ccc(N2C(=O)C3C=CC(n4[nH]c(=O)n(Cc5ccccc5)c4=O)CC3C2=O)cc1 (stereo not given) | > 100 | > 100 | > 100 | > 100 | > 100 | > 100 | > 100 | > 100 | > 100
15 | O=CC1CCCc2ccccc21 (stereo not given) | > 100 | > 59.4 | > 100 | > 62.4 | > 100 | > 100 | > 100 | > 100 | > 100
16 | CCOC(=O)C(=Cc1cccnc1C)C(=O)OCC | 16.2 | 18.6 | 25.5 | 14.2 | 18.9 | 40.7 | 17.6 | 20.8 | 11.8
17 | Cc1cccc(C(C)C)c1NC(=O)CC1C(=O)Nc2ccccc2S1(=O)=O (stereo not given) | > 59.4 | > 51.4 | 70.1 | > 51.8 | > 50 | > 100 | 84.4 | 39.5 | > 69
18 | O=c1c2ccccc2nc(-c2ccccc2)n1NC1OC(CO)C(O)C(O)C1O (stereo not given) | > 100 | > 100 | > 100 |  | > 100 | > 100 | > 100 | > 100 | > 100

Source: PubChem BioAssay (NCI)
